A word on the AUC(0-t): it is the area under the concentration-time curve up to a stated or last time point. A lower AUC(0-t) goes with low exposure. The term MRT denotes a mean duration of stay, worked out from the concentration-time curve. As usually defined, the half-life is the time needed for the level to fall by half in the phase considered. Lower therefore signals fast loss. The clearance is the rate of elimination divided by the concentration. As usually defined, the MIC is the lowest concentration found to suppress growth. As usually defined, the pIC50 is −log10 of the IC50, conventionally taken in molar units. The term inhibition denotes the percentage by which the read-out fell short of the control. Usually IC50 stands for the concentration at which inhibition is half-maximal.

pIC50: −log10 of the molar value. Converted amounts (≈) assume the structure as drawn. The source made the active and inactive calls.

Experimental findings from ChEMBL document CHEMBL5518248, “Design, Synthesis, and Biological Evaluation of Novel Arylomycins against Multidrug-Resistant Gram-Negative Bacteria” (J Med Chem, 2024) are described below.

The nature of series [1]: AUC (0 to t) in Sprague-Dawley rat at 10 mg/kg, iv measured upto 24 hrs LC-MS/MS analysis. The class given is ADME, organism-based. The following applies: Sprague-Dawley, in vivo.
Series [2] is described as follows: MRT in Sprague-Dawley rat at 10 mg/kg, iv measured upto 24 hrs LC-MS/MS analysis. The class given is ADME, organism-based. The following applies: in vivo.
Series [3] in a line: Half life in Sprague-Dawley rat at 10 mg/kg, iv measured upto 24 hrs LC-MS/MS analysis. The note with it: in vivo. Type of series: ADME, organism-based.
Series [4] can be described thus: Clearance in Sprague-Dawley rat at 10 mg/kg, iv measured upto 24 hrs LC-MS/MS analysis. Type of series: ADME, organism-based. The note with it: in vivo.
Series [5] in a line: Volume of distribution at steady state in Sprague-Dawley rat at 10 mg/kg, iv measured upto 24 hrs LC-MS/MS analysis. The following applies: in vivo, read-out: Vdss. The class given is ADME, organism-based.
Series [6] has as its system Escherichia coli. As to the kind of experiment: Antibacterial activity against Escherichia coli ATCC 35218 assessed as inhibition of bacterial growth measured after 18 to 20 hrs by broth microdilution method. The class given is functional. The following applies: time 18-20 hrs. For orientation: Dilution methods test growth across graded concentrations, often in twofold steps.

For series [7], the system named is Escherichia coli. As to the kind of experiment: Antibacterial activity against Escherichia coli 14-2 assessed as inhibition of bacterial growth measured after 18 to 20 hrs by broth microdilution method. The class given is functional. The following applies: time 18-20 hrs.
Series [8] relates to Escherichia coli. Description: Antibacterial activity against Escherichia coli 14-4 assessed as inhibition of bacterial growth measured after 18 to 20 hrs by broth microdilution method. Type of series: functional. The following applies: time 18-20 hrs.
In series [9] the test system is Klebsiella pneumoniae. Description: Antibacterial activity against Klebsiella pneumoniae 15-1 assessed as inhibition of bacterial growth measured after 18 to 20 hrs by broth microdilution method. The class given is functional. The following applies: time 18-20 hrs.
Series [10] has as its system Klebsiella pneumoniae. As to the kind of experiment: Antibacterial activity against Klebsiella pneumoniae 15-4 assessed as inhibition of bacterial growth measured after 18 to 20 hrs by broth microdilution method. The class given is functional. The following applies: time 18-20 hrs.
Series [11] has as its system Klebsiella pneumoniae. Description: Antibacterial activity against Klebsiella pneumoniae 15-5 assessed as inhibition of bacterial growth measured after 18 to 20 hrs by broth microdilution method. The class given is functional. The note with it: time 18-20 hrs.
In series [12] the test system is Acinetobacter baumannii. As to the kind of experiment: Antibacterial activity against Acinetobacter baumannii 17-2 assessed as inhibition of bacterial growth measured after 18 to 20 hrs by broth microdilution method. The class given is functional. The following applies: time 18-20 hrs.
Series [13] relates to Acinetobacter baumannii. Description: Antibacterial activity against Acinetobacter baumannii 17-8 assessed as inhibition of bacterial growth measured after 18 to 20 hrs by broth microdilution method. Type of series: functional. The following applies: time 18-20 hrs.
The subject of series [14] is Pseudomonas aeruginosa. As to the kind of experiment: Antibacterial activity against Pseudomonas aeruginosa 17-1 assessed as inhibition of bacterial growth measured after 18 to 20 hrs by broth microdilution method. The following applies: time 18-20 hrs. The class given is functional.
Series [15] has as its system Pseudomonas aeruginosa. As to the kind of experiment: Antibacterial activity against Pseudomonas aeruginosa 19-5 assessed as inhibition of bacterial growth measured after 18 to 20 hrs by broth microdilution method. The following applies: time 18-20 hrs. The class given is functional.
Series [16] has as its system Pseudomonas aeruginosa. As to the kind of experiment: Antibacterial activity against Pseudomonas aeruginosa T-2022 assessed as inhibition of bacterial growth measured after 18 to 20 hrs by broth microdilution method. The note with it: time 18-20 hrs. Type of series: functional.
Series [17] deals with Pseudomonas aeruginosa. As to the kind of experiment: Antibacterial efficacy against multi drug resistant Pseudomonas aeruginosa T-2022-D2-048 infected in cyclophosphamide-induced neutropenic thigh infection ICR mouse model assessed as decrease in bacterial burden at 40 mg/kg, iv dose measured after 24 hrs. The class given is functional, organism-based.
For series [18], the system named is HepG2. Description: Cytotoxicity against human HepG2 cells assessed as inhibition of cell growth incubated for 24 hrs by CCK8 method. The class given is functional, cell-based. The following applies: HepG2, 24 h. (Formazan colour is commonly taken as a measure of viable cells.)
The subject of series [19] is HepG2. Description: Cytotoxicity against human HepG2 cells assessed as inhibition of cell growth at 100 uM incubated for 24 hrs by CCK8 method relative to control. The class given is functional.
A short description of series [20]: Cytotoxicity against HEK293T cells assessed as inhibition of cell growth incubated for 24 hrs by CCK8 method. Type of series: toxicity, cell-based, HEK-293T. The following applies: human.
Series [21] is described as follows: Cytotoxicity against HEK293T cells assessed as inhibition of cell growth at 100 uM incubated for 24 hrs by CCK8 method relative to control. Type of series: toxicity, cell-based, HEK-293T. The note with it: human.
Series [22] concerns Jurkat. As to the kind of experiment: Cytotoxicity against human Jurkat cells assessed as inhibition of cell growth incubated for 24 hrs by CCK8 method. Type of series: functional, cell-based.
Series [23] relates to Jurkat. As to the kind of experiment: Cytotoxicity against human Jurkat cells assessed as inhibition of cell growth at 100 uM incubated for 24 hrs by CCK8 method relative to control. The class given is functional.

In [1], `CCCSSCc1ccc(-c2ncc(C(=O)N[C@@H](CCN)C(=O)N(C)[C@@H]3C(=O)N[C@@H](C)C(=O)N[C@H](C(=O)NCC#N)Cc4ccc(OCCN)c(c4)-c4cc3ccc4OCCN)c(C)n2)cc1` came in with an AUC(0-t) at 24 h of 15300 ng·h/mL. Besides, the mean residence time MRT in series [2] is 0.44 h. The half-life in series [3] was 0.37 h. Further, the clearance in [4] came out at 10.8 mL/min/kg. Moreover, the Vd in [5] was found to be 0.285 L/kg.

In series [1], `Cc1nc(-c2ccc(SSC(C)(C)C)cc2)ncc1C(=O)N[C@@H](CCN)C(=O)N(C)[C@@H]1C(=O)N[C@@H](C)C(=O)N[C@H](C(=O)NCC#N)Cc2ccc(OCCN)c(c2)-c2cc1ccc2OCCN` displayed an AUC(0-t) at 24 h of 170000 ng·h/mL. In series [2], this molecule showed a mean residence time MRT of 4.4 h. The molecule also showed a half-life in series [3] of 2.8 h. In addition, the clearance in series [4] came out at 0.954 mL/min/kg. In addition, the Vd in series [5] worked out at 0.252 L/kg.

Take `C[C@@H](O)[C@H]1C(=O)N2C(C(=O)O)=C(S[C@@H]3CN[C@H](C(=O)N(C)C)C3)[C@H](C)[C@H]12` [MEROPENEM]: the minimal inhibitory concentration (MIC) is 0.06 µg/mL (≈ 0.156 µM) with Escherichia coli [6]; 2 µg/mL (≈ 5.22 µM) with Escherichia coli [7]; 2 µg/mL (≈ 5.22 µM) in the series with Escherichia coli [8]; above 64 µg/mL in the series with Klebsiella pneumoniae [9]; above 64 µg/mL in the series on Klebsiella pneumoniae [10]; above 64 µg/mL in the series on Klebsiella pneumoniae [11]. In addition, the MIC with Acinetobacter baumannii [12] is above 64 µg/mL; in the series on Acinetobacter baumannii [13] it was above 64 µg/mL; in the series with Pseudomonas aeruginosa [14], 8 µg/mL (≈ 20.9 µM); in the series with Pseudomonas aeruginosa [15] it was 32 µg/mL (≈ 83.4 µM); in the series on Pseudomonas aeruginosa [16], above 64 µg/mL. Moreover, the outcome with Pseudomonas aeruginosa [17] was Active.

In the case of `Cc1nc(-c2ccc(CSSC(C)(C)C)cc2)ncc1C(=O)N[C@@H](CCN)C(=O)N(C)[C@@H]1C(=O)N[C@@H](C)C(=O)N[C@H](C(=O)NCC#N)Cc2ccc(OCCN)c(c2)-c2cc1ccc2OCCN.O=C(O)C(F)(F)F.O=C(O)C(F)(F)F.O=C(O)C(F)(F)F.O=C(O)C(F)(F)F`, the minimum inhibitory concentration (MIC) in the series on Escherichia coli [6], in the series with Escherichia coli [7], with Escherichia coli [8], with Klebsiella pneumoniae [9], in the series on Klebsiella pneumoniae [10] and with Klebsiella pneumoniae [11] was at most 0.03 µg/mL throughout. The minimal inhibitory concentration (MIC) stood at 0.125 µg/mL in the series with Acinetobacter baumannii [12], 0.125 µg/mL in the series with Acinetobacter baumannii [13], 4 µg/mL in the series with Pseudomonas aeruginosa [14] and 4 µg/mL in the series on Pseudomonas aeruginosa [15]. Moreover, the pIC50 in the series on HepG2 [18] and with Jurkat [22] was below 4.00 in each case. In addition, the results for the inhibition at 100 µM in the series with HepG2 [19] and in the series on Jurkat [23] were 28.4% and 34.6%, respectively. In addition, the IC50 at 24 h in series [20] is above 100 µM. Moreover, in series [21], the inhibition at 24 h, 100 µM turned out to be 43%.

Take `C[C@H]1COc2c(N3CCN(C)CC3)c(F)cc3c(=O)c(C(=O)O)cn1c23` [LEVOFLOXACIN ANHYDROUS]: the MIC in the series with Pseudomonas aeruginosa [16] was above 64 µg/mL.
